Test results published in PubChem BioAssay (NCI).
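Method: 48-hour compound exposure of cells in 96-well plates, five concentrations, linear interpolation of endpoints. TGI denotes the concentration required for complete inhibition of growth.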

Key:
Test in all cases: DTP human tumour cell line panel, 48 h
SF-268 CNS = test system: SF-268 CNS
MDA-MB-231 breast = test system: MDA-MB-231 breast
PC-3 prostate = test system: PC-3 prostate
HOP-62 NSCLC = test system: HOP-62 NSCLC
NCI-H226 lung = test system: NCI-H226 lung
UACC-62 melanoma = test system: UACC-62 melanoma
SK-MEL-28 melanoma = test system: SK-MEL-28 melanoma
RXF 393 renal = test system: RXF 393 renal
NCI-H460 lung = test system: NCI-H460 lung
OVCAR-3 ovarian = test system: OVCAR-3 ovarian

SMILES	TGI (SF-268 CNS) [µM]	TGI (MDA-MB-231 breast) [µM]	TGI (PC-3 prostate) [µM]	TGI (HOP-62 NSCLC) [µM]	TGI (NCI-H226 lung) [µM]	TGI (UACC-62 melanoma) [µM]	TGI (SK-MEL-28 melanoma) [µM]	TGI (RXF 393 renal) [µM]	TGI (NCI-H460 lung) [µM]	TGI (OVCAR-3 ovarian) [µM]
CC1(COS(=O)(=O)OCC2(C)COS(=O)(=O)OC2)COS(=O)(=O)OC1	> 100	> 100	> 100	> 100	> 96.8	> 100	> 100	> 100	> 100	> 100
CC(C)(C)OC[C@H](O)CC#N	> 100	> 100	> 100	> 100	> 100	> 100	> 100	> 100	> 100	> 100
[N-]=[N+]=Nc1ccc(CNc2cc(=O)[nH]c(=O)[nH]2)cc1	> 100	> 100	> 100	> 100	> 100	> 100	99.6	> 100	> 100	> 100
COc1ccc2nc3cc(Cl)ccc3c(NCCNCCCNC(=O)c3cc(-c4ccccc4)nc4ccccc34)c2c1	> 100	> 100	> 100	> 100	> 100	> 100	> 100	> 100	> 100	> 100
Cc1c(NC2(C)C(=O)N(/N=C/c3ccccc3)N=C2c2ccccc2)n[nH]c1-c1ccccc1 (stereo not given)	> 100	> 100	> 100	> 100	> 100	> 100	> 100	> 100	> 100	> 100
COc1ccc(C2C(C#N)=C(S)N(C3OC(CO)C(O)C(O)C3O)C(c3ccccc3)=C2C(C)=O)cc1 (stereo not given)	> 100	> 100	> 100	> 100	> 100	> 100	> 100	> 100	> 100	> 100
COc1c(C)c(OC)c2c(c1O)[C@@H]1[C@@H]3Cc4c(OC)c(C)c(OC)c(O)c4[C@H](CNC(=O)c4cnc5ccccc5n4)N3[C@@H](C#N)[C@H](C2)N1C	> 0.1	0.032	> 0.0556	> 0.1	0.00622	0.00346	0.00733	> 0.0368	> 0.1	0.0168
O=C1C(Br)=C(c2ccccc2)S(=O)c2ccccc21 (stereo not given)	36.5	29.2	21.2	5.68	40.7	26.6	42.1	24.8	40.6	26
NC(N)=NS(=O)(=O)c1ccc(NC(=O)c2ccc3nc4ccccc4c(Nc4ccc(S(N)(=O)=O)cc4)c3c2)cc1	> 100	> 100	> 100	> 100	> 100	> 100	> 100	> 100	> 100	> 100
COC(=O)[C@@]12CCCC(=O)[C@@H]1[C@H]1CCCC[C@H]12	> 100	> 100	> 100	> 100	> 100	> 100	> 100	> 100	> 100	> 100
CCO/C(O)=C(/C(=N)N1CCCC1)C(=O)Nc1cccc(C(F)(F)F)c1	> 100	> 100	> 100	> 100	83.7	> 100	> 100	53.6	> 100	> 100
Cc1cc(=O)oc2cc(O)ccc12	> 100	> 100	> 100	> 100	> 100	> 100	> 100	> 100	> 100	> 100
COc1ccc(OC)c2c1C1CCC(=O)N1CN2C(C)=O (stereo not given)	> 100	> 100	> 100	> 100	> 100	> 100	> 100	> 100	> 100	> 100
O=c1oc2ccc(Cl)cc2cc1-c1cn2cc(Cl)ccc2n1	> 100	> 100	> 100	> 100	> 100	15	> 100	> 100	> 100	> 100
Cc1ccc(C(=O)/C(C#N)=C/Nc2c(C)n(C)n(-c3ccccc3)c2=O)cc1	> 100	> 100	> 100	> 100	> 100	> 100	> 100	> 100	> 100	> 100
O=c1[nH]c2cc3[nH]c4ncccc4c(=O)c3cc2[nH]1	> 10	> 10	> 10	> 10	> 10	> 10	> 10	> 10	> 10	> 10
CCOC(=O)C(/C=N\C(=S)Nc1ccc(OCC)cc1)=C(/O)c1ccccc1	> 100	> 100	> 100	> 100	> 100	> 100	> 100	> 100	> 100	> 100
O=C1c2cccc3cccc(c23)C(=O)N1CCCNOCCONCCCN1C(=O)c2cccc3cccc(c23)C1=O	> 100	> 100	> 100	> 100	> 100	> 100	> 100	> 100	> 100	> 100
COC(=O)[C@@H]1C[C@@]2(C3C=CN(C(=O)C(F)(F)F)C=C3)c3ccccc3N(C(=O)C(F)(F)F)[C@H]2N1C(=O)OC	> 100	> 100	> 100	> 100	> 100	> 100	> 100	60.4	> 100	> 100
C=C(C)C1CC=C(C)C2(C1)OCC(C)(C)C(C)O2 (stereo not given)	70.9	46.3	> 100	31.8	35.7	30.4	63.9	27.3	> 100	29.9
Cc1c2c(OCCCCN3CCN(c4ncccn4)CC3)nn(C)c(=O)c2c(C)n1-c1ccccc1	34.3	30.7	37.3	57.8	40.8	31	34.5	41.8	35.6	41.9
CC(=O)c1cc2ccccc2n(O)c1=N	> 100	> 100	> 100	> 100	> 100	> 100	> 100	> 100	> 100	> 100
O=C1/C(=C2\Sc3c(ccc(Cl)c3Cl)C2=O)Sc2c1ccc(Cl)c2Cl	> 100	> 100	> 100	> 100	> 100	> 100	> 100	> 100	> 100	> 100
NNc1nncn1N	> 100	> 100	> 100	> 100	> 100	> 100	> 100	> 100	> 100	> 100
CC(C)OP(=O)(OC(C)C)C(C(C)C)N(C)/C(F)=N/C(F)(F)F (stereo not given)	> 100	> 100	> 100	> 100	> 100	> 100	> 100	> 100	> 100	> 100
O=S1(=O)c2ccccc2NC(=S)CC1c1ccccc1 (stereo not given)	> 100	> 100	> 100	> 100	> 100	> 100	> 100	> 100	> 100	> 100
